Read-outs that look alike come from different tables or passages of the source.
Columns and labels:
[1] = system: Bloodstream Trypanosoma brucei brucei Lister 427; test: Trypanosome cell growth dose–response assay (resazurin viability test); type: cell-based
[2] = system: Bloodstream form culture of T. b. brucei; test: Cell cycle analysis by FACS (propidium iodide); type: cell-based, Trypanosoma brucei brucei; conditions: concentration twice the EC50, 18 h
Protocol: For cell cycle analysis, samples (1.5 × 10^6 cells) were collected, centrifuged (1400g at 4 °C for 5 min), and washed in trypanosome dilution buffer (TDB). The cell pellets were gently suspended in 50 μL of TDB and permeabilized by adding 1 μL of saponin (25 mg/mL) for 3 min. It was then mixed with another 450 μL of TDB. RNase and propidium iodide (PI) were added to the suspension at final concentrations of 10 and 20 μg/mL, respectively, and the samples were incubated at room temperature for 30 min and then stored at 4 °C. The DNA content of PI-stained cells and the percentage of cells in each phase of the cell cycle (10 000 cells per sample) were analyzed with a Becton Dickinson FACSCalibur flow cytometer (BD Biosciences) using BD CellQuest Pro version 4.0.2 software.
Figure S3. Cell Cycle analysis of parasites upon dosage with NVP-BEZ235 derivative.
Bloodstream form culture of T. b. brucei was subjected to different drugs and analyzed by
Fluorescencecactivated cell sorter (FACS) for DNA content stained by propidium iodide (PI).
Cell cultures were incubated during 18 h with various NVPcBEZ235 derivatives using DMSO as
a control treatment. Mean ± SD of three independent experiments are shown.

ChromlogD assay = type: physicochemical; conditions: pH 7.4
Protocol: page 13: PHYSICOCHEMICAL PROPERTIES ASSAYS […] phosphate buffered saline, equilibrated for 1 hour at room temperature, filtered through Millipore […] filter plates (MSSL BPC). The filtrate is quantified by suitably calibrated flow injection ChemicLuminescent Nitrogen Detection.1 The standard error of the CLND solubility […] DMSO stock solution. GSK inchouse Artificial Membrane Permeability Assay: […] in 1% cholesterol decane solution was applied to a […], 0.4um, PCF culture plate. 250 μL and 100 μL 50 mM phosphate buffer pH 7.4 with 0.5% […] applied to the […] in DMSO was added to the donor compartment. The assay was incubated at RT for 3 hours. Samples from both donor and receiver compartments were analyzed by HPLC with UV detection at 215 and 254 nm and permeability was calculated. The permeability (logPapp) measuring how fast molecules pass through the black lipid membrane is expressed in nm/s. ChromlogD assay. The Chromatographic Hydrophobicity Index (CHI)2 values were measured using reversed phase HPLC column (Luna C18 (2),Phenomenex, UK) with fast acetonitrile gradient at starting mobile phase of pH = 7.4. CHI values are derived directly from the gradient retention times by using a calibration line obtained for standard compounds. The CHI value approximates to the volume % organic concentration when the compound elutes. CHI is linearly transformed into ChromlogD by leastcsquare fitting of experimental CHI values to calculated ClogP values for over 20K research compounds using the following formula: ChromlogD = 0.0857CHIc2.00. The average error of the assay is ±3 CHI unit or ±0.25 ChromlogD. S13

[3] = system: bloodstream form of T. brucei; test: Transferrin uptake (receptor-mediated endocytosis); type: cell-based, Trypanosoma brucei; conditions: concentration twice the EC50, 18 h
Description: Highly efficient and rapid endocytosis is one of the most important cellular processes for this infective parasite to survive and multiply within the bloodstream of the host, and the activity of TbPI3KIII is essential for this process.[25] To gain insight on the possible target(s) of our compounds, we carried out transferrin uptake experiments to measure receptor-mediated endocytosis after drug treatment. […] Compound 16e induced a phenotype defective in endocytosis (Figure 3); however, the PIP3 molecular species identified (42:7-9) was not the same PIP3 molecular species identified in WT cells (44:9-12).
Two million trypanosomes were harvested and washed with TDB-glucose plus 1% BSA, resuspended in 250 μL in the same buffer, and incubated for 10 min at 37 °C prior to the addition of 5 μg of AlexaFluor 488-conjugated human holo-Tf (Invitrogen). Incubations were carried out for 0 (no Tf) or 3 min at 37 °C, after which cells were immediately fixed in 4 °C in 1% PFA diluted in cold PBS for at least 1 h. Parasites were finally washed twice with PBS and analyzed with a Becton Dickinson FACSCalibur flow cytometer (BD Biosciences) using BD CellQuest Pro version 4.0.2 software.

[4] = system: phosphorylated PIs (PIP, PIP3) in T. brucei cells; test: Phospholipidomics analysis (ES-MS of lipid extracts); type: cell-based, Trypanosoma brucei; conditions: 200 nM, 12 h; negative ion mode scans 950–1300 m/z
Description: We originally selected 1 to investigate its potential as an trypanocidal agent on the basis of its activity as a PI3K/mTOR inhibitor in mammalian cells and the fact that PI3K activity is essential for the bloodstream form of the T. brucei parasite.[25] In the interest of elucidating the potential mechanism of action against T. brucei cells, we performed a lipidomic analysis to discern if PI kinases are likely targets of these analogues. Lipid extracts of cells grown in the presence of the best compounds at sublethal doses (200 nM) for 12 h were analyzed by ES-MS. […] There were no significant differences in the phosphatidylcholine (PC) and sphingomylein (SM) species between the control and cells grown in the presence of the other compounds (Figure S1). […] Alternatively, as is often the case, changes in the lipid profile could be a reflection in the cells succumbing to (or adapting to) a defect in a major cellular process, such as endo- or exocytosis or cell cycle arrest.
Because these compounds are thought to target PI3K, negative ion mode scans between 950 and 1300 m/z were conducted to focus upon singly and multiply phosphorylated PIs.
Total lipids from mid log phase cells were extracted by the method of Bligh and Dyer.[30] Briefly, mid log phase cells were collected by centrifugation (800g, 10 min), washed with PBS, resuspended in 100 μL of TDB-glucose, transferred to a glass tube containing 375 μL of 1:2 (v/v) CHCl3/MeOH, and vortexed. The sample was agitated vigorously for a further 10–15 min. The sample was made biphasic by the addition of 125 μL of CHCl3 and vortexed, and then 125 μL of H2O was added. The sample was vortexed again and centrifuged at 3000g at rt for 10 min. The lower (organic) phase was transferred into a new glass vial, and the aqueous phase was re-extracted with the fresh lower phase. The resultant lower phase lipid extract was dried under a stream of nitrogen and stored at 4 °C.
Lipid extracts were dissolved in 15 μL of CHCl3/MeOH (1:2) and 15 μL of acetonitrile/isopropanol/water (6:7:2) and analyzed with a triple quadrupole mass spectrometer (Absceix 4000 QTrap) equipped with a nanoelectrospray source. […] The lipid extracts were analyzed in both positive and negative ion modes using a capillary voltage of 1.25 kV. […] Tandem mass spectra (MS/MS) were obtained with collision energies as follows: 35–45 V, PC/SM in positive ion mode, parent-ion scanning of m/z 184; 35–55 V, PI in negative ion mode, parent-ion scanning of m/z 241; 35–65 V, PE in negative ion mode, parent-ion scanning of m/z 196; 20–35 V, PS in negative ion mode, neutral loss scanning of m/z 87; and 40–90 V, for all glycerophospholipids (including PA, PG, and cardiolipin) detected by precursor scanning for m/z 153 in negative ion mode. […]

[5] = Table 2, average of two replicates, read-out: T brucei EC50
[6] = Table 4, measured value (outside parentheses)

Compound	HepG2 TC50 (HepG2 cell line) [µM]	EC50 [1, 5] [µM]	cell cycle progression [2]	chromatographic logD (ChromlogD assay; [6])	transferrin uptake / endocytosis [3]	phosphorylated PI (PIP) levels vs control cells [4]	EC50 ([1]; Trypanosoma brucei, read-out: EC50 against T. brucei) [µM]	chromatographic logD (ChromlogD assay)
1-Methyl-8-(pyridin-4-yl)-1H-imidazo[4,5-c]quinolin-2(3H)-one [Compound 16k]	>20	3.27						
Cc1ccc(-n2c(=O)n(C)c3cnc4ccc(-c5ccncc5)cc4c32)cc1 [Compound 16e, 3-Methyl-8-(pyridin-4-yl)-1-(p-tolyl)-1H-imidazo[4,5-c]quinolin-2(3H)-one]			did not significantly alter cell cycle progression	3.5	inhibited endocytosis dramatically	significant (albeit incomplete) reduction in PIP levels		
CC(C)(C#N)c1ccc(Nc2c(N)cnc3ccc(-c4cnc5ccccc5c4)cc23)cc1 [Compound 20, 2-(4-((3′-Amino-[3,6′-biquinolin]-4′-yl)amino)phenyl)-2-methylpropanenitrile]							0.767	
COc1ccc(-n2c(=O)n(C)c3cnc4ccc(-c5ccncc5)cc4c32)cc1 [Compound 16g, 1-(4-Methoxyphenyl)-3-methyl-8-(pyridin-4-yl)-1H-imidazo[4,5-c]quinolin-2(3H)-one]			did not significantly alter cell cycle progression	3.03	inhibited endocytosis dramatically	almost complete absence of all phosphorylated PIs		
1-(4-((4-Methylpiperazin-1-yl)methyl)phenyl)-8-(pyridin-4-yl)-1H-imidazo[4,5-c]quinolin-2(3H)-one [Compound 16j]	>7.6	3.35						
Cn1c(=O)n(-c2ccc(C(C)(C)C#N)cc2)c2c3cc(-c4cnc5ccccc5c4)ccc3ncc21 [Compound 1, NVP-BEZ235, reference compound]			did not significantly alter cell cycle progression		inhibited endocytosis dramatically	almost complete absence of all phosphorylated PIs		4.75

Reference: paper PMC4099174 (Journal of Medicinal Chemistry, 2014)
